This note sets out measurements from patent US12116356B2, “N-heterocyclic five-membered ring-containing capsid protein assembly inhibitor, pharmaceutical composition thereof, and use thereof” (CHIA TAI TIANQING PHARMACEUTICAL GROUP CO., LTD., priority 2018, dated 2024).

Series [1] has as its target CYP 2C9 (Homo sapiens (Human), UniProt P11712). The experiment in a line: CYP450 enzyme inhibition study (liver microsomes, subtype IC50). To be noted: 30 minutes, read-out: Subtypes IC50 2C9. It is filed as in vitro ADME. The procedure:
(§1) 500 μL of a final incubation system contains 50 μL of liver microsomes (protein concentration: 0.2 mg/mL), 1 μL of mixed CYP450 specific substrates (CYP1A2, CYP 2B6, CYP 2C9, CYP2C19, CYP 2D6, and CYP 3A4), 398 μL PBS buffer (PH7.4), 1 μL specific positive inhibitor (positive control group) or the test compound (formulated with acetonitrile), and 50 μL NADPH+MgCl2. Duplicate incubation systems of 0.5 mL each were formulated for each CYP450 subtype. A total volume of 450 μL of a uniformly mixed solution of the substrate and the enzyme was formulated in each tube, and the solution and NADPH were pre-incubated at 37° C. for 5 minutes, respectively. Then 50 μL of the mixed solution of NADPH+MgCl2 was added for reaction. 50 μL of the reaction solution was taken out at 30 minutes, and the reaction was terminated with 300 μL of ice acetonitrile containing an internal standard. In addition, two control groups of 500 μL each without NADPH were prepared in parallel as a negative control group.
(§2) Sample pre-treatment: To 50 μL of the incubated sample was added 300 μL of ice acetonitrile containing an internal standard, and then precipitated. After vortexing for 5 minutes, the sample was centrifugated (12000 rpm, 4° C.) for 10 minutes. 75 μL of the supernatant was pipetted, and 75 μL of ultrapure water was added thereto for dilution and mixed uniformly. 1 μL of the resulting solution was injected for analysis.
In general terms: Microsomes from liver hold many membrane-bound enzymes, among them those of drug oxidation.

Series [2] deals with CYP1A2 (Homo sapiens (Human), UniProt P05177). The series is described as above. It is filed as in vitro ADME. The procedure:
as §1, §2

Series [3] deals with CYP 2D6 (Homo sapiens (Human), UniProt P10635). Described as above. It is filed as in vitro ADME. The following applies: 30 minutes, read-out: Subtypes IC50 2D6. The protocol: as §1, §2
CYP 2D6, sequence (P10635 whole entry): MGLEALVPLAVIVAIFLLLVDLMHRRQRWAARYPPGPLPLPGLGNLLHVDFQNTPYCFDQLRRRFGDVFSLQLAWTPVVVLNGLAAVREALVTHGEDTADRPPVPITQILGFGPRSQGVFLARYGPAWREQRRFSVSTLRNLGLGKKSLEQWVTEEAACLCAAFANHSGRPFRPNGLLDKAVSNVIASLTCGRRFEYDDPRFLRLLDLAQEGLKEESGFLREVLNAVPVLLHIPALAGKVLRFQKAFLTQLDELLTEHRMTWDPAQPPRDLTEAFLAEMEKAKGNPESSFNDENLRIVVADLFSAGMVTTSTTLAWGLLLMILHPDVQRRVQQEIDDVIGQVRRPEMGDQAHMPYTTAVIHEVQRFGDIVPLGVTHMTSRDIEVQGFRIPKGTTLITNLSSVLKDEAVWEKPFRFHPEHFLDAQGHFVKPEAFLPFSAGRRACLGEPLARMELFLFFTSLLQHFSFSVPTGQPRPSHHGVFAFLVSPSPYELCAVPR
Series [4] addresses CYP2C19 (Homo sapiens (Human), UniProt P33261). Described as above. It is filed as in vitro ADME. To be noted: 30 minutes, read-out: Subtypes IC50 2C19. The procedure: as §1, §2
For series [5], the target named is CYP 2B6 (Homo sapiens (Human), UniProt P20813). Described as above. Type of series: in vitro ADME. The following applies: 30 minutes, read-out: Subtypes IC50 2B6. The protocol: as §1, §2
CYP 2B6, sequence (P20813 whole entry): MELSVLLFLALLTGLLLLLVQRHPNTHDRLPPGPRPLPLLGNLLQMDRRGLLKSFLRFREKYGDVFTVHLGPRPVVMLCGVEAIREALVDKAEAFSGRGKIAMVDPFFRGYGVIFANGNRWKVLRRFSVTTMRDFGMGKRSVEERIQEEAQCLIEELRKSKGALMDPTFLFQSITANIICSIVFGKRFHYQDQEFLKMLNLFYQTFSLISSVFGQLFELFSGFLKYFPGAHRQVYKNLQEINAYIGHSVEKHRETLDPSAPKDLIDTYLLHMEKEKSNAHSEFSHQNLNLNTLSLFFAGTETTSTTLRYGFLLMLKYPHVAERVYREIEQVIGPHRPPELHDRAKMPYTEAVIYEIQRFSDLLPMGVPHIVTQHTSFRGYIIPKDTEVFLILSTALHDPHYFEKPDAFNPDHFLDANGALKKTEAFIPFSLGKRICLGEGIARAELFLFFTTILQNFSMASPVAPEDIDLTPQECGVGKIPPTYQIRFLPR
The nature of series [6]: Plasma protein binding assay (equilibrium dialysis), human plasma. It is filed as in vitro ADME. The procedure:
Formulation of plasma sample: 495 μL of blank plasmas of the corresponding species (mouse, rat, dog, monkey, and human) were drawn respectively, and thereto was added 5 μL of the corresponding test compound solution or positive control to give plasma sample solutions having a plasma drug concentration of the compound of 1 μM, and 10 μM, respectively (formulated with acetonitrile).
The pre-treated dialysis membrane was placed in a high-throughput equilibrium dialysis device, and 100 μL of the plasma sample solution and PBS buffer solution were drawn and added respectively to both sides of the dialysis membrane (sample side and buffer side) (n=3). After the equilibration device was sealed with a film, it was incubated at 37° C. overnight (100 rpm). After dialysis equilibrium was reached, 50 μL samples were drawn from the sample side and the buffer side, respectively, and the reaction was terminated by adding ice acetonitrile containing an internal standard.
as §2, with “plasma-side” for “incubated”, “450” for “300”, “analysis. To 50 μL of the PBS-side sample was added 250 μL of ice acetonitrile with an internal standard, and precipitated. After vortexing for 5 min, the sample was centrifugated (12000 rpm, 4° C.) for 10 min. 75 μL of the supernatant was pipetted, and 75 μL of ultrapure water was added thereto for dilution and mixed uniformly. 2 μL of the resulting solution was injected for analysis.” for “analysis.”
Background: In equilibrium dialysis only unbound substance equilibrates across the membrane.

Series [7] has as its system rAAV8-1.3HBV virus (adr subtype). Description: Antiviral effect evaluation in AAV mouse model. Type of series: in vivo, C57BL/6 mice. To be noted: 30 mpk intragastric once daily, administration for 24 days. The protocol:
6-8 week old male C57BL/6 mice were injected with rAAV8-1.3HBV virus (adr subtype) at tail vein at a dose of 1×10^11 vg. Blood was collected from the orbits of the mice on week 2 and 4 after the virus injection. The serum was separated, and the expression levels of HBeAg and HBsAg in the serum and the HBV DNA copy number were detected to evaluate whether the model was successfully established. According to the results of quantitative detection of serological HBeAg, HBsAg and HBV DNA, the mice having HBV DNA expression level greater than 1×10^4 IU/mL, HBeAg expression level greater than 1×10^3 NCU/mL and HBsAg expression level greater than 1×10^3 ng/mL were selected. The mice were grouped into a blank control group, a vehicle control group, and a test substance group. […] During the experiment, blood was collected from the orbits every other week, serum was separated, and the DNA content was detected by fluorescent quantitative PCR method.

The subject of series [8] is HBV (recombinant plasmid pHBV 1.3). The experiment in a line: Antiviral effect evaluation in HDI mouse model. Type of series: in vivo, C57BL/6 mice. To be noted: 30 mg/kg intragastric once daily for 6 days. The protocol:
6-8 week old male C57BL/6 mice was used, and each mouse was injected with purified recombinant plasmid pHBV 1.3 (10 μg) dissolved in PBS equivalent to a volume of about 10% of its body weight through the tail vein within 3-8 s. Blood was collected from the orbits of the mice at 24 hours after the plasmid injection to detect serum HBV DNA. The model mice having uniform serum DNA were selected and divided into: a blank control group, a vehicle control group, and a test substance group. Mice in each group were continuously administered intragastrically once daily for 6 days at a dose of 30 mg/kg. The mouse serum was taken on day 1, 3, 5, and 7 after the injection, and the mice were sacrificed on day 7 to take liver tissue samples. The HBV DNA copy numbers in serum and liver of the mice were detected by fluorescent quantitative PCR method.

SMILES strings stand for the structures.

CYP1A2, sequence (P05177 whole entry): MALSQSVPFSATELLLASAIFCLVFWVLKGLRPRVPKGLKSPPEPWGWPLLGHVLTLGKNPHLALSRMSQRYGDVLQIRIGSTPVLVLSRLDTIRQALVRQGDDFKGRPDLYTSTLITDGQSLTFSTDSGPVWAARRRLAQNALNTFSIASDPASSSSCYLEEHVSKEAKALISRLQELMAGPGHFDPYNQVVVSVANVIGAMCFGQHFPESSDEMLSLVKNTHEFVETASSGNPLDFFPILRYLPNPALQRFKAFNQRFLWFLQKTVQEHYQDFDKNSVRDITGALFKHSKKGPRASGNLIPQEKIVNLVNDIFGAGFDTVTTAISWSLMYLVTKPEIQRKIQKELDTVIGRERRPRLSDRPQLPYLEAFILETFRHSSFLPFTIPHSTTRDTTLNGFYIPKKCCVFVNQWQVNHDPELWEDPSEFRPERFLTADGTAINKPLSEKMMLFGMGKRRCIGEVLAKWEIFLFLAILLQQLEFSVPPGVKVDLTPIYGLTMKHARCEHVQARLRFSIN
CYP2C19, sequence (P33261 whole entry): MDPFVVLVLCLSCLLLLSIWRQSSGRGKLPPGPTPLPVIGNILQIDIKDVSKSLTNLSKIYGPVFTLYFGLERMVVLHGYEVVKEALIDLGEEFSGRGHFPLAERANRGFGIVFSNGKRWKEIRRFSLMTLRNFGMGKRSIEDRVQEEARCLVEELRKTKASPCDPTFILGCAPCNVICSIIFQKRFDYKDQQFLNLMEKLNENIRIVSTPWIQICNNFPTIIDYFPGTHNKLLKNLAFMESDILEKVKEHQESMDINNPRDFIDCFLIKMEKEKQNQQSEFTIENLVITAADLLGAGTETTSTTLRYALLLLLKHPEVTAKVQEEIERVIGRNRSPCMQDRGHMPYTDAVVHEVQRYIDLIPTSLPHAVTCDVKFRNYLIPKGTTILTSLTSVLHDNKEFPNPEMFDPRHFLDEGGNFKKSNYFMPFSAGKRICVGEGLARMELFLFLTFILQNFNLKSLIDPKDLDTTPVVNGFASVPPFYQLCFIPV
CYP 2C9, sequence (P11712 whole entry): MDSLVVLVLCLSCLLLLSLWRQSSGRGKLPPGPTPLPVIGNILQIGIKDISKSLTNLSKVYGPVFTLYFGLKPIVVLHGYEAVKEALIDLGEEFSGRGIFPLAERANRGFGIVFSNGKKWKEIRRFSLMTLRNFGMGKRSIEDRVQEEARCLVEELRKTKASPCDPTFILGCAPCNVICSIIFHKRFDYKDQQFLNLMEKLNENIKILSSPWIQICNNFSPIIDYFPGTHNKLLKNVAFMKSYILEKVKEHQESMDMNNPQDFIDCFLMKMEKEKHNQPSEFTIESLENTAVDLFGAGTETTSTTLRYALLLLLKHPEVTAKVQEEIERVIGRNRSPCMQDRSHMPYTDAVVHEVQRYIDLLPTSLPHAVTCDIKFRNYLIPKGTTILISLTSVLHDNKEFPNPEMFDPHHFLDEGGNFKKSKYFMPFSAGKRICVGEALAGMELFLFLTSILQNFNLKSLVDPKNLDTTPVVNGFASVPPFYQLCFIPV

With `Cc1c(C(=O)Nc2ccc(F)c(C#N)c2)c(C)n(C)c1C(=O)C(=O)N[C@@H](C)C(F)(F)F` [Example 12], the IC50 – broadly, the point on the concentration scale where inhibition reaches its midpoint – in series [1] was 79.7 µM; in series [2], 46.4 µM; in series [3], 224 µM; in series [4] it was 60 µM; in series [5] it was 146 µM. For the same compound, the Binding rate was found to be 94.0% in series [6] (1 μM) and 93.7% in series [6] (10 μM). Moreover, in series [7], the “Reduction levels (log10) of HBV DNA in serum, Day 7” value is 2.42 log10. For the same compound, the “Reduction levels (log10) of HBV DNA in serum, Day 14” value in series [7] is given as 3.46 log10. Besides, the “Reduction levels (log10) of HBV DNA in serum, Day 21” value in series [7] is reported as 5.08 log10. Moreover, the “Reduction levels (log10) of HBV DNA in serum, Day 28” value in series [7] was 2.48 log10. In addition, the “Reduction levels (log10) of HBV DNA in semm on day 5” value in series [8] is 2.17 log10.

Consider `Cc1c(C(=O)Nc2ccc(F)c(C#N)c2)c(C)n(C)c1C(=O)C(=O)NC1(C(F)(F)F)COC1` [Example 25, N-(3-cyano-4-fluorophenyl)-1,2,4-trimethyl-5-(2-oxo-2-((3-(trifluoromethyl)oxetan-3-yl)amino)acetyl)-1H-pyrrole-3-carboxamide], for which the IC50 in series [1] was 16.6 µM; in series [2] it was 229 µM; in series [3] it was 120 µM; in series [4], 24.9 µM; in series [5], 61.1 µM. For the same compound, the values for the Binding rate in series [6] (1 μM) and in series [6] (10 μM) were 92.9% and 92.2%, respectively. Also, in series [7], the “Reduction levels (log10) of HBV DNA in serum, Day 7” value is reported as 1.16 log10. Also, in series [7], the “Reduction levels (log10) of HBV DNA in serum, Day 14” value is 1.76 log10. Besides, in series [7], the “Reduction levels (log10) of HBV DNA in serum, Day 21” value amounted to 2.89 log10. The “Reduction levels (log10) of HBV DNA in serum, Day 28” value in series [7] was found to be 1.28 log10. Moreover, in series [8], the “Reduction levels (log10) of HBV DNA in semm on day 5” value is on record as 1.73 log10.
